Data on 1 compound can be found in patent US7972785B2, “Biomarkers for liver fibrotic injury” (Industrial Technology Research Institute (ITRI), priority 2006, dated 2011).

Experiment [1] has as its system Tgfβ1, Timp1, Timp2, Mmp3, Ggtp mRNA in rat liver. The experiment is described as follows: Q-RT-PCR of liver mRNA in DMN-treated rats. The experiment is classed as in vivo. On the procedure:
To gain additional information about the established animal model, Q-RT-PCR was used to evaluate the gene expression profile of transforming growth factor-1 (Tgfβ1), which is the strongest known inducer of fibrogenesis in the effector cells of hepatic fibrosis that can stimulate the adipocyte transformation (24-27). The same total RNA samples were used for both microarray and Q-RT-PCR analyses. RNA preparation and analysis were performed according to Affymetrix's (Santa Clara, Calif., U.S.A.) instructions. The TAQMAN® assays were conducted in triplicate for each sample, and a mean value was used for calculation of expression levels. To standardize the quantification of the target genes, 18S ribosomal RNA (18S rRNA) from each sample was quantified on the same plate with the target genes. […] The changes were in agreement with observations described in Jezequel A. M. et al. (14). In sum, these examinations support the DMN-induced rat hepatic fibrosis model.
To validate the microarray data, Q-RT-PCR analysis was performed for tissue inhibitor of metalloproteinase 1 (Timp1), tissue inhibitor of metalloproteinase 2 (Timp2), matrix metalloproteinase 3 (Mmp3) and gamma-glutamyl transpeptidase (Ggtp). These genes were chosen for validation because these genes occurred both in this GeneChip study and in previous studies.
Moreover, a good concordance based on the fold changes between microarray data and Q-RT-PCR results was observed. […] TAQMAN® assays were conducted in triplicate for each sample, and a mean value was used for calculation of expression levels (marked by the square). To standardize the quantification of the Timp1 transcript, 18S rRNA from each sample was quantified on the same plate as the target gene, as indicated by the log scale on the right side of plot. The expression levels of the two Timp1 transcripts, rc_AI169327_at and rc_AI169327_g_at (marked by a circle and a triangle, respectively), were set forth relative to the mean of all gene expression levels as indicated by the scale on the left side of plot.

For experiment [2], the system named is rat liver transcripts. Description: Affymetrix Rat Genome U34A microarray gene expression profiling of liver of DMN-treated rats. The experiment is classed as in vivo. An excerpt: Protocols and reagents for hybridization, washing and staining followed Affymetrix's instructions, which may be retrieved from Affymetrix's company website. Labeled cRNA was hybridized to the Affymetrix GeneChip Test 3 Array to verify the quality prior to hybridization to the Affymetrix Rat Genome U34A Array.
The microarray images were transformed into text files containing intensity information using GENECHIP® Operating Software (GCOS) developed by ® Affymetrix. The microarray datasets were then analyzed using GENESPRING® 7.2 software (Silicon Genetics, Redwood City, Calif., U.S.A.)
Over the six week time course of the experiment, the liver tissues of 12 control animals and 12 DMN-treated rats (2 rats for each time point) were selected to perform microarray experiments. Before any statistical analyses were applied to the microarray data, reproducibility was assessed. Genes were selected as present when they were assigned a present call according to the perfect match (PM)/mismatch (MM) algorithm of Affymetrix in all gene chips (28). Of the 8799 probe sets analyzed, overall expression patterns for 2385 transcripts on the chips were reported to be present (P<0.05). […] Scattered graphs of expression levels of the 2385 transcripts represented on the microarray were compared with each other. The relationship between the experimental chips in the microarray analysis was analyzed by linear regression. Overall, there was no statistical difference, with 3.2% of transcripts deviating more than 2-fold. To investigate the time course variability, the reliable signals of these 2385 probe sets between the first and sixth week of controls, were calculated. Again, there was no statistical difference, with 4.6% of transcripts deviating more than 2-fold. In contrast, a significant scatter was found between controls and DMN-treated groups, with 28.7% of transcripts deviating more than 2-fold. […]

Setting [3] is: Q-RT-PCR, DMN-treated samples, data not shown.

Each structure is given as a SMILES string.

On to `CN(C)N=O` [DMN, Dimethylnitrosamine], for which, in experiment [1] (Q-RT-PCR, DMN-treated rat livers), the “Tgfβ1 mRNA expression in liver vs controls” value is on record as “higher level of mRNA expression”. Further, in experiment [1] (setting [3]), the Ggtp expression result is reported as “elevated”, the Mmp3 expression entry is recorded as “elevated” and the Timp2 expression entry is “elevated”. Moreover, in experiment [1] (both microarray and Q-RT-PCR experiments), the “Timp1 expression elevation in DMN-treated rats” value was “over 20 fold”. The “transcripts deviating more than 2-fold between controls and DMN-treated groups” value in experiment [2] (2385 present transcripts) was 28.7%. Besides, the “Timp1 expression elevation in DMN treated rats” value in experiment [2] (microarray) was “more than twenty”. Moreover, the CD63 expression result in experiment [2] (microarray, after DMN treatment) is given as “up-regulated”.
